Data set [1] has as its system HIV-1 92UG029 (clade A virus). The data set is described as follows: HIV cell culture assay, 92UG029 Gag/Pr recombinant virus in MT-2 cells. It counts as cell-based. As to the method: MT-2 cells and 293T cells were obtained from the NIH AIDS Research and Reference Reagent Program. MT-2 cells were propagated in RPMI 1640 media supplemented with 10% heat-inactivated fetal bovine serum, […]. The 293T cells were propagated in DMEM media supplemented with 10% heat-inactivated fetal bovine serum (FBS), 100 units/mL penicillin G and 100 μg/mL streptomycin. The proviral DNA clone of NL4-3 was obtained from the NIH AIDS Research and Reference Reagent Program. A recombinant NL4-3 virus, in which a section of the nef gene from NL4-3 was replaced with the Renilla luciferase gene, was used as a reference virus. In addition, residue Gag P373 was converted to P373S. Briefly, the recombinant virus was prepared by transfection of the altered proviral clone of NL4-3. Transfections were performed in 293T cells using LipofectAMINE PLUS from Invitrogen (Carlsbad, Calif.), according to manufacturer's instruction. The virus was titered in MT-2 cells using luciferase enzyme activity as a marker. Luciferase was quantitated using the Dual Luciferase kit from Promega (Madison, Wis.), with modifications to the manufacturer's protocol. The diluted Passive Lysis solution was pre-mixed with the re-suspended Luciferase Assay Reagent and the re-suspended Stop & Glo Substrate (2:1:1 ratio). Fifty (50) μL of the mixture was added to each aspirated well on assay plates and luciferase activity was measured immediately on a Wallac TriLux (Perkin-Elmer). Antiviral activities of inhibitors toward the recombinant virus were quantified by measuring luciferase activity in cells infected for 4-5 days with NLRluc recombinants in the presence serial dilutions of the inhibitor.
Determination of EC50 for WT, EC50 for A364V, and EC50 for 92UG029 viruses:
HIV-1 92UG029 was obtained from the NIH (Catalog Number: 1650). This is a subtype A Gag and subtype A Env, X4 (SI) virus from Uganda. Reference: WHO Network for HIV Isolation and Characterization. AIDS Res Hum Retroviruses 10:1359, 1994. The Gag/Pr region from 92UG029 was used to replace that in an HIV-1 NL4-3 virus expressing Renilla luciferase gene.
Both recombinant viruses were used as described above in the HIV cell culture assay for the NL4-3 virus.

Data set [2] relates to WT (wild-type HIV virus; recombinant NL4-3 virus). The data set is described as follows: microbe, parasite or virus in culture. The class given is cell-based, HIV-1. The essentials:
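MT-2 cells infected 4-5 days with NL4-3 carrying Renilla luciferase in place of part of nef (Gag P373S), virus made by 293T transfection, with serial inhibitor dilutions. Antiviral activity read as luciferase activity by a modified dual-luciferase read-out.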

In data set [3] the test system is HIV-1 NL4-3 gag A364V virus. The data set is described as follows: microbe, parasite or virus in culture. The class given is cell-based. The essentials: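 Recombinant NL4-3 reporter virus with Renilla luciferase replacing part of nef, made by transfection of 293T cells. MT-2 cells infected for 4-5 days with serial inhibitor dilutions; antiviral activity quantified by luciferase activity.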

A short description of data set [4]: Rat PO pharmacokinetic study. The class given is in vivo. As to conditions: male, Sprague-Dawley, plasma, oral dose of 5 mg/kg, PEG-400/ethanol (90/10) solution, fasted rats. As to the method:
Rat Pharmacokinetic Studies:
For the PO pharmacokinetic studies of the compounds in rats, the compounds were each dissolved in PEG-400/ethanol (90/10) as a solution.
Rat. Male Sprague-Dawley rats (300-350 g, Hilltop Lab Animals, Inc., Scottsdale, Pa.) with cannulas implanted in the jugular vein were used. The rats were fasted overnight in the PO pharmacokinetic studies. Blood samples of 0.3 mL were collected from the jugular vein in EDTA-containing microtainer tubes (Becton Dickinson, Franklin Lakes, N.J.), and centrifuged to separate plasma.
In the PO study of the tested compounds, the rats (n=3) received an oral dose of 5 mg/kg of the indicated compound. Serial blood samples were collected before dosing and 15, 30, 45, 60, 120, 240, 360, 480, and 1440 min after dosing.
Quantitation of Compounds in Plasma. Aliquots of plasma samples from rat, studies were prepared for analysis by precipitating plasma proteins with two volumes of acetonitrile containing an internal standard of a similar compound. The resulting supernates were separated from the precipitated proteins by centrifugation for 10 minutes and transferred to autosampler vials. Samples were either prepared manually, or with the use of the Tomtec automated liquid handler. An aliquot of 5 μL was injected for analysis.
The HPLC system consisted of two Shimadzu LC10AD pumps (Columbia, Md.), a Shimadzu SIL-HTC autosampler (Columbia, Md.), and a Hewlett Packard Series 1100 column compartment (Palo Alto, Calif.). The column was a YMC Pro C18 (2.0×50 mm, 3 μm particles, Waters Co., Milford, Mass.), maintained at 60° C. and a flow rate of 0.3 ml/min. The mobile phase consisted of 10 mM ammonium formate and 0.1% formic acid in water (A) and 100% 10 mM ammonium formate and 0.1% formic acid in methanol (B). The initial mobile phase composition was 95% A. After sample injection, the mobile phase was changed to 15% A/85% B over 2 minutes and held at that composition for an additional 1 minute. The mobile phase was then returned to initial conditions and the column re-equilibrated for 1 minute. Total analysis time was 4 minutes.
The HPLC was interfaced to a Micromass Quattro LC. Ultra high purity nitrogen was used as the nebulizing and desolvation gas at flow rates of 100 L/hr for nebulization and 1100 L/hr for desolvation. The desolvation temperature was 300° C. and the source temperature was 150° C. Data acquisition utilized selected reaction monitoring (SRM). Ions representing the (M+H)^+ species for the compound and the internal standard were selected in MS1 and collisionally dissociated with argon at a pressure of 2×10^−3 torr to form specific product ions which were subsequently monitored by MS2.

The mark [5] stands for this setting: Human immunodeficiency virus 1, MT2, read-out: 92UG029A Clade T332S/V362I/V370A (EC50, uM).
[6] abbreviates: Human immunodeficiency virus 1, MT2, read-out: EC50 92UG029 (μM).
The mark [7] stands for this setting: Human immunodeficiency virus 1, NL43, MT2, read-out: EC50 WT (μM), Table 2, 3× higher viral input.
Setting [8] is: Human immunodeficiency virus 1, NL43, MT2, read-out: WT (EC50, uM), Table 1 regular screen, MT-2 cells, luciferase readout.
Where [9] appears, read: Human immunodeficiency virus 1, NL43, MT2, read-out: A364V (EC50, uM), Table 1 regular screen, MT-2 cells, luciferase readout.
Where [10] appears, read: Human immunodeficiency virus 1, NL43, MT2, read-out: EC50 A364V (μM), Table 2, 3× higher viral input.

Read-outs that look alike come from different tables or passages of the source.

As a reminder, the AUC is concentration integrated over time.

`C=C(C)[C@@H]1CC[C@]2(NCCN3CCS(=O)(=O)CC3)CC[C@]3(C)[C@H](CC[C@@H]4[C@@]5(C)CC=C(C6=CCC(CF)(C(=O)O)CC6)C(C)(C)[C@@H]5CC[C@]43C)[C@@H]12` (mixture of isomers) [Example 2, 4-((1R,3aS,5aR,5bR,7aR,11aS,11bR,13aR,13bR)-3a-((2-(1,1-dioxidothiomorpholino)ethyl)amino)-5a,5b,8,8,11a-pentamethyl-1-(prop-1-en-2-yl)-2,3,3a,4,5,5a,5b,6,7,7a,8,11,11a,11b,12,13,13a,13b-octadecahydro-1H-cyclopenta[a]chrysen-9-yl)-1-(fluoromethyl)cyclohex-3-enecarboxylic acid]: the EC50 in data set [1] (setting [5]) came to 0.00461 µM; in data set [1] (setting [6]), 0.005 µM; in data set [2] (setting [7]), 0.002 µM; in data set [2] (setting [8]), 0.00129 µM; in data set [3] (setting [9]), 0.0847 µM; in data set [3] (setting [10]), 0.21 µM. This molecule also gave an AUC in data set [4] of 7.93 µM·h.

Take `C=C(C)[C@@H]1CC[C@]2(NCCN3CCS(=O)(=O)CC3)CC[C@]3(C)[C@H](CC[C@@H]4[C@@]5(C)CC=C(C6=CCC(C)(C(=O)O)CC6)C(C)(C)[C@@H]5CC[C@]43C)[C@@H]12` (stereo partly shown) [Compound B, reference compound]: the EC50 in data set [1] (setting [6]) worked out at 0.03 µM; in data set [2] (setting [7]), 0.002 µM; in data set [3] (setting [10]), 1.3 µM. Further, in data set [1] (relative to Compound 2), the “fold less potent than Compound 2 vs 92UG029” value worked out at 6 fold. In addition, the “potency vs. WT (in words)” value in data set [2] (comparative data) is “comparable potency”. The “fold less potent than Compound 2 vs A364V” value in data set [3] (relative to Compound 2) is 6 fold. In addition, the AUC in data set [4] was found to be 6.46 µM·h.

As to `C=C(C)[C@@H]1CC[C@]2(NCCN3CCS(=O)(=O)CC3)CC[C@]3(C)[C@H](CC[C@@H]4[C@@]5(C)CC=C(C6=CC[C@](CF)(C(=O)O)CC6)C(C)(C)[C@@H]5CC[C@]43C)[C@@H]12` [Example 2a, (S)-4-((1R,3aS,5aR,5bR,7aR,11aS,11bR,13aR,13bR)-3a-((2-(1,1-dioxidothiomorpholino)ethyl)amino)-5a,5b, 8,8,11a-pentamethyl-1-(prop-1-en-2-yl)-2,3,3a,4,5,5a,5b,6,7,7a,8,11,11a,11b,12,13,13a,13b-octadecahydro-1H-cyclopenta[a]chrysen-9-yl)-1-(fluoromethyl)cyclohex-3-enecarboxylic acid], the EC50 is 0.00706 µM in data set [1] (setting [5]); 0.02 µM in data set [1] (setting [6]); 0.002 µM in data set [2] (setting [7]); 0.00198 µM in data set [2] (setting [8]); 0.16 µM in data set [3] (setting [9]); 0.78 µM in data set [3] (setting [10]). In data set [4], this molecule returned an AUC of 7.03 µM·h.

Regarding `C=C(C)[C@@H]1CC[C@]2(NCCN3CCS(=O)(=O)CC3)CC[C@]3(C)[C@H](CC[C@@H]4[C@@]5(C)CC=C(C6=CC[C@@](CF)(C(=O)O)CC6)C(C)(C)[C@@H]5CC[C@]43C)[C@@H]12` [Example 2b, (R)-4-((1R,3aS,5aR,5bR,7aR,11aS,11bR,13aR,13bR)-3a-((2-(1,1-dioxidothiomorpholino)ethyl)amino)-5a,5b,8,8,11a-pentamethyl-1-(prop-1-en-2-yl)-2,3,3a,4,5,5a,5b,6,7,7a,8,11,11a,11b,12,13,13a,13b-octadecahydro-1H-cyclopenta[a]chrysen-9-yl)-1-(fluoromethyl)cyclohex-3-enecarboxylic acid], the EC50 in data set [1] (setting [5]) worked out at 0.00618 µM; in data set [1] (setting [6]), 0.001 µM; in data set [2] (setting [7]) it was 0.003 µM; in data set [2] (setting [8]), 0.00148 µM; in data set [3] (setting [9]), 0.201 µM; in data set [3] (setting [10]), 0.17 µM. The same molecule had an AUC in data set [4] of 7.39 µM·h.

The values are drawn from patent US10245275B2 (ViiV HEALTHCARE UK (NO.4) LIMITED, priority 2014, dated 2019).
